Results taken from BindingDB's records for patent US11530198 (Vyera Pharmaceuticals, 2022).

How the values were obtained:
Dihydrofolate reductase = biological target: T1, Dihydrofolate reductase (Homo sapiens, UniProt P00374); assay: Not found
T1 sequence (P00374 whole entry): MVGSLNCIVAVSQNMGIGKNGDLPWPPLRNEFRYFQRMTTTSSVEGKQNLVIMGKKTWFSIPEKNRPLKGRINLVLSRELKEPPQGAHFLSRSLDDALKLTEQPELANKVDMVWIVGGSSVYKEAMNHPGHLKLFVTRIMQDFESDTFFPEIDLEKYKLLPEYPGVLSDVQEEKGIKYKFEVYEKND

[1] = biological target: Bifunctional dihydrofolate reductase-thymidylate synthase (Leishmania major, UniProt P07382); assay: Not found
Sequence of Bifunctional dihydrofolate reductase-thymidylate synthase (P07382 whole entry): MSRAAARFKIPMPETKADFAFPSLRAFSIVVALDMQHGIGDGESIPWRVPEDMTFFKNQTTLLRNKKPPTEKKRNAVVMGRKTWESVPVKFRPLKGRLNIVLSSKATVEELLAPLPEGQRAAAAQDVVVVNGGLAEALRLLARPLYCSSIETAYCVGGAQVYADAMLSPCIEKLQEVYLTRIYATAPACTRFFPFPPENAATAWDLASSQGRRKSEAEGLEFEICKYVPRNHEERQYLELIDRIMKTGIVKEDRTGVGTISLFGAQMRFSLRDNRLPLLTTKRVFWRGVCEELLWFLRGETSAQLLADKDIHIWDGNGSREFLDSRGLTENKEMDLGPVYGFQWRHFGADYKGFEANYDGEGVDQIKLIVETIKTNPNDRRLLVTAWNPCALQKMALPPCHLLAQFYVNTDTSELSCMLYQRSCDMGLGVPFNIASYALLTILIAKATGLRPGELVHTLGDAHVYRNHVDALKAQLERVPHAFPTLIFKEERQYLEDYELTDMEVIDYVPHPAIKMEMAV

Compound `Nc1ncc(N2CCN(c3ccccc3-c3ccccc3)CC2)c(N)n1` [US11530198, Example 12] has an IC50 (Dihydrofolate reductase) of 214 nM and an IC50 [1] of 7.41 nM.
